In patent publication US20210171589A1, “TRUNCATED CARTILAGE-HOMING PEPTIDES AND PEPTIDE COMPLEXES AND METHODS OF USE THEREOF” (BLAZE BIOSCIENCE, INC., priority 2018, published 2021):
Bridge positions count the residues as written; N and C are the ends. Peptide text beside a SMILES is read from it.

Tests used:
porcine pepsin = porcine pepsin (Sus scrofa, UniProt P00791); assay: Peptide resistance to proteolytic digestion by pepsin; format: in vitro ADME; conditions: 50 U of porcine pepsin in simulated gastric fluid at pH 1.0, 30 minutes at 37° C.
Protocol: (§1) This example illustrates peptide stability under various stress conditions such as high temperature, low pH, reducing agents, and proteases. To determine resistance to high temperatures, cystine-dense peptides (CDPs) were incubated at 0.5 mM in PBS at 75° C. or 100° C. for 1 h and pelleted, and the supernatant was analyzed with reversed-phase chromatography (RPC). To determine resistance to proteolytic digestion, CDPs were mixed with 50 U of porcine pepsin, in simulated gastric fluid at pH 1.0, or 50 U of porcine trypsin in PBS, incubated for 30 minutes at 37° C. and analyzed with RPC. Oxidized and reduced forms (prepared through addition 10 mM DTT) were compared. Circular Dichroism spectroscopy was used in order to measure the secondary structure of peptides with a Jasco J-720W spectropolarimeter in a cell with a 1.0-mm path length, and CDPs were diluted into 20 mM phosphate buffer, pH 7.4, at a concentration of 15-25 μM. These conditions were expected to denature or degrade conventional globular proteins and many peptides. In TABLE 10, “high” resistance indicated a high amount of the peptide remained or was retained as unmodified under the given experimental conditions and “low” resistance indicated a low amount of the peptide remained or was retained unmodified under the given experimental conditions. […]

porcine trypsin = porcine trypsin (Sus scrofa, UniProt P00761); assay: Peptide resistance to proteolytic digestion by trypsin; format: in vitro ADME; conditions: 50 U of porcine trypsin in PBS, 30 minutes at 37° C.
Protocol: as §1

Chain of porcine trypsin (P00761 9-231): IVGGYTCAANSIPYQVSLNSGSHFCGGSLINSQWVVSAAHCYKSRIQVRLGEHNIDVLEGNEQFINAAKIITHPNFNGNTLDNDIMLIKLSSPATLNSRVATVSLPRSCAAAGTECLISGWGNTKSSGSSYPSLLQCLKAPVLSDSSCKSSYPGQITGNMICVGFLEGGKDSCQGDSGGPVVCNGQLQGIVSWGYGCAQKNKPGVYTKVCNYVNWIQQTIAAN
Chain of porcine pepsin (P00791 60-385): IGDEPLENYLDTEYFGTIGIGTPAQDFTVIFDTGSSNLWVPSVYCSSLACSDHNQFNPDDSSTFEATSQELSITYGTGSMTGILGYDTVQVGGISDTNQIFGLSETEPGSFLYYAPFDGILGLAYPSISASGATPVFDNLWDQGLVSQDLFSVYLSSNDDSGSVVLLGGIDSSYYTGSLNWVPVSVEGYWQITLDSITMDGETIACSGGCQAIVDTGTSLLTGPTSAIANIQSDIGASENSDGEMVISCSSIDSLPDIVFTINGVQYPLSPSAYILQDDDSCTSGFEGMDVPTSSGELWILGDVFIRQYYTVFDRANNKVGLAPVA

Compound: CC[C@H](C)[C@@H]1NC(=O)[C@@H]2CSSC[C@H](NC(=O)[C@H](CCCCN)NC(=O)[C@@H](NC(=O)[C@H](CC(N)=O)NC(=O)[C@@H](NC(=O)[C@@H]3CCCN3C(=O)[C@@H](NC(=O)CNC(=O)[C@H](CO)NC(=O)CN)C(C)C)[C@@H](C)CC)C(C)C)C(=O)N[C@@H](CCCNC(=N)N)C(=O)NCC(=O)N[C@@H](CO)C(=O)N[C@@H](CCCNC(=N)N)C(=O)N[C@@H](CC(=O)O)C(=O)N[C@H]3CSSC[C@H](NC(=O)[C@H](CCCCN)NC(=O)[C@H](CO)NC(=O)[C@H](CC(N)=O)NC1=O)C(=O)N[C@@H](Cc1c[nH]cn1)C(=O)N[C@H](C(=O)N[C@H](C(=O)N1CCC[C@H]1C(=O)O)[C@@H](C)O)CSSC[C@H](NC(=O)[C@@H]1CCCN1C(=O)[C@H](CC(=O)O)NC(=O)[C@H](CC(C)C)NC3=O)C(=O)N[C@@H](CCCCN)C(=O)N[C@@H](CCCCN)C(=O)N[C@@H](C)C(=O)NCC(=O)N[C@@H](CCSC)C(=O)N[C@@H](CCCNC(=N)N)C(=O)N[C@@H](Cc1ccccc1)C(=O)NCC(=O)N[C@@H](CCCCN)C(=O)N2 [compound 150] (H-GSGVPINVKCRGSRDCLDPCKKAGMRFGKCINSKCHCTP-OH; disulfide 10-30, 16-35, 20-37; N-terminus and C-terminus assumed)
- Resistance to Pepsin (porcine pepsin): High
- Resistance to Trypsin (porcine trypsin): High
